Results as given in US10722501B2 (BAYER AKTIENGESELLSCHAFT, priority 2016, dated 2020).

Target: T1, recombinant full-length human prolyl endopeptidase (PREP) (Homo sapiens, UniProt P48147)
T1 construct: To recombinant full-length human prolyl endopeptidase (PREP, R&D-Systems, 4308-SE); purchased R&D-Systems 4308-SE
T1 sequence (P48147 1-710): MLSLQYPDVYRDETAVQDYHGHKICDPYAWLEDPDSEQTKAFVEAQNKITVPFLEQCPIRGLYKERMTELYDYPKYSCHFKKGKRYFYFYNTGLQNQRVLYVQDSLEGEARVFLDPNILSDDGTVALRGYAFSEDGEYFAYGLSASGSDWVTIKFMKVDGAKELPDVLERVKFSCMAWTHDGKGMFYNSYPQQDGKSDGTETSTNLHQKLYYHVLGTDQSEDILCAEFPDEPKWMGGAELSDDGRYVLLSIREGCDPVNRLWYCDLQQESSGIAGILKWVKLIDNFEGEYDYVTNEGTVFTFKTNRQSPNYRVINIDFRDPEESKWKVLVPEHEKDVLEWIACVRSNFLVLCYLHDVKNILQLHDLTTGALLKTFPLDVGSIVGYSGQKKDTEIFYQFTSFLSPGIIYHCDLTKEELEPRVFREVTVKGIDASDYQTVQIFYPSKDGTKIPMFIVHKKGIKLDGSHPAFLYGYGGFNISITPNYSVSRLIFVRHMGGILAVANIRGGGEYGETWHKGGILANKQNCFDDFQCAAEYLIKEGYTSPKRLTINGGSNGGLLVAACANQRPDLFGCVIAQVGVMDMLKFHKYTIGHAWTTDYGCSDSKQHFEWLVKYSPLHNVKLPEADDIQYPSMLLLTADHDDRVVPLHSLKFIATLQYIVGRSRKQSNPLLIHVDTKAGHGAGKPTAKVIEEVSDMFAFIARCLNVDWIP
Assay: Biochemical human prolyl endopeptidase (PREP) assay with fluorescently labelled substrate
Conditions: substrate Z-Gly-Pro-AMC 50 μM, 32° C., 60 min; some as mean values from multiple independent determinations
In short: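 Initial rates of fluorescence increase from 50 μM Z-Gly-Pro-AMC cleavage (ex 360/em 465 nm, 60 min, 32° C) give percent PREP activity versus no-compound control, and IC50 is interpolated. Enzyme used at 0.4 nM (final, example) in Tris pH 7.5 with EDTA, GSH, BSA and Brij-35; compounds span 1 nM to 30 μM.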

| SMILES | IC50 [nM] |
| --- | --- |
| O=C([C@@H]1CCCc2nn(Cc3ncc(F)cc3F)c(=O)n21)N1C[C@@H](F)[C@@H](F)C1 [Example 411, (5S)-2-[(3,5-Difluoropyridin-2-yl)methyl]-5-{[(3R,4S)-3,4-difluoropyrrolidin-1-yl]carbonyl}-5,6,7,8-tetrahydro[1,2,4]triazolo[4,3-a]pyridin-3(2H)-one] | 2.5 |
| O=C([C@@H]1CCCc2nn(Cc3ncc(F)cc3F)c(=O)n21)N1CCC(F)(F)C1 [Example 412, (5S)-2-[(3,5-Difluoropyridin-2-yl)methyl]-5-[(3,3-difluoropyrrolidin-1-yl)carbonyl]-5,6,7,8-tetrahydro[1,2,4]triazolo[4,3-a]pyridin-3(2H)-one] | 3 |
| Cn1nc(Cn2nc3n(c2=O)[C@H](C(=O)N2CC(F)(F)C2)CCC3)c2cccnc21 [Example 415, (5S)-5-[(3,3-Difluoroazetidin-1-yl)carbonyl]-2-[(1-methyl-1H-pyrazolo[3,4-b]pyridin-3-yl)methyl]-5,6,7,8-tetrahydro[1,2,4]triazolo[4,3-a]pyridin-3(2H)-one] | 5.4 |
| O=C([C@@H]1CCCc2nn(Cc3cc4cccnc4nc3C(F)(F)F)c(=O)n21)N1CCC(F)(F)C1 [Example 418, (5S)-5-[(3,3-Difluoropyrrolidin-1-yl)carbonyl]-2-{[2-(trifluoromethyl)-1,8-naphthyridin-3-yl]methyl}-5,6,7,8-tetrahydro[1,2,4]triazolo[4,3-a]pyridin-3(2H)-one] | 2.24 |
| O=C([C@@H]1CCCc2nn(Cc3ccc(C(F)(F)F)nc3)c(=O)n21)N1CC[C@H](O)C1 [Example 425, (5S)-5-{[(3S)-3-Hydroxypyrrolidin-1-yl]carbonyl}-2-{[6-(trifluoromethyl)pyridin-3-yl]methyl}-5,6,7,8-tetrahydro[1,2,4]triazolo[4,3-a]pyridin-3(2H)-one] | 35 |
| O=C([C@@H]1CCCc2nn(Cc3ccc(C(F)(F)F)nc3)c(=O)n21)N1CCC(F)(F)C1 [Example 426, (5S)-5-[(3,3-Difluoropyrrolidin-1-yl)carbonyl]-2-{[6-(trifluoromethyl)pyridin-3-yl]methyl}-5,6,7,8-tetrahydro[1,2,4]triazolo[4,3-a]pyridin-3(2H)-one] | 6.93 |
| O=C([C@@H]1CCCc2nn(Cc3ccc(C(F)(F)F)nc3)c(=O)n21)N1CC(O)C1 [Example 428, (5S)-5-[(3-Hydroxyazetidin-1-yl)carbonyl]-2-{[6-(trifluoromethyl)pyridin-3-yl]methyl}-5,6,7,8-tetrahydro[1,2,4]triazolo[4,3-a]pyridin-3(2H)-one] | 53 |
| O=C([C@@H]1CCCc2nn(Cc3ccc(C(F)(F)F)nc3)c(=O)n21)N1CC(F)C1 [Example 429, (5S)-5-[(3-Fluoroazetidin-1-yl)carbonyl]-2-{[6-(trifluoromethyl)pyridin-3-yl]methyl}-5,6,7,8-tetrahydro[1,2,4]triazolo[4,3-a]pyridin-3(2H)-one] | 3.7 |
| COc1ccc(Cn2nc3n(c2=O)[C@H](C(=O)N2CC(F)C2)CCC3)cn1 [Example 433, (5S)-5-[(3-Fluoroazetidin-1-yl)carbonyl]-2-[(6-methoxypyridin-3-yl)methyl]-5,6,7,8-tetrahydro[1,2,4]triazolo[4,3-a]pyridin-3(2H)-one] | 3.1 |
| COc1ccc(Cn2nc3n(c2=O)[C@H](C(=O)N2CCC(F)(F)C2)CCC3)cn1 [Example 434, (5S)-5-[(3,3-Difluoropyrrolidin-1-yl)carbonyl]-2-[(6-methoxypyridin-3-yl)methyl]-5,6,7,8-tetrahydro[1,2,4]triazolo[4,3-a]pyridin-3(2H)-one] | 2.4 |
| O=C([C@@H]1CCCc2nn(Cc3cncc(Cl)c3)c(=O)n21)N1CCC(F)(F)C1 [Example 435, (5S)-2-[(5-Chloropyridin-3-yl)methyl]-5-[(3,3-difluoropyrrolidin-1-yl)carbonyl]-5,6,7,8-tetrahydro[1,2,4]triazolo[4,3-a]pyridin-3(2H)-one] | 2.65 |
| O=C([C@@H]1CCCc2nn(Cc3cncc(Cl)c3)c(=O)n21)N1CC(F)C1 [Example 436, (5S)-2-[(5-Chloropyridin-3-yl)methyl]-5-[(3-fluoroazetidin-1-yl)carbonyl]-5,6,7,8-tetrahydro[1,2,4]triazolo[4,3-a]pyridin-3(2H)-one] | 4.7 |

Now those with a lower IC50, led by results:

| IC50 [nM] | SMILES |
| --- | --- |
| 1.9 | Cn1nc(Cn2nc3n(c2=O)[C@H](C(=O)N2CCC(F)(F)C2)CCC3)c2cccnc21 [Example 413, (5S)-5-[(3,3-Difluoropyrrolidin-1-yl)carbonyl]-2-[(1-methyl-1H-pyrazolo[3,4-b]pyridin-3-yl)methyl]-5,6,7,8-tetrahydro[1,2,4]triazolo[4,3-a]pyridin-3(2H)-one] |
| 0.79 | Cn1nc(Cn2nc3n(c2=O)[C@H](C(=O)N2C[C@@H](F)[C@@H](F)C2)CCC3)c2cccnc21 [Example 414, (5S)-5-{[(3R,4S)-3,4-Difluoropyrrolidin-1-yl]carbonyl}-2-[(1-methyl-1H-pyrazolo[3,4-b]pyridin-3-yl)methyl]-5,6,7,8-tetrahydro[1,2,4]triazolo[4,3-a]pyridin-3(2H)-one] |
| 0.88 | O=C([C@@H]1CCCc2nn(Cc3cc4cccnc4nc3C(F)(F)F)c(=O)n21)N1CC[C@H](F)C1 [Example 419, (5S)-5-{[(3S)-3-Fluoropyrrolidin-1-yl]carbonyl}-2-{[2-(trifluoromethyl)-1,8-naphthyridin-3-yl]methyl}-5,6,7,8-tetrahydro[1,2,4]triazolo[4,3-a]pyridin-3(2H)-one] |
| 1.7 | O=C([C@@H]1CCCc2nn(Cc3cc4cccnc4nc3C(F)(F)F)c(=O)n21)N1CC(F)C1 [Example 420, (5S)-5-[(3-Fluoroazetidin-1-yl)carbonyl]-2-{[2-(trifluoromethyl)-1,8-naphthyridin-3-yl]methyl}-5,6,7,8-tetrahydro[1,2,4]triazolo[4,3-a]pyridin-3(2H)-one] |
| 0.91 | O=C([C@@H]1CCCc2nn(Cc3ccc(Cl)nc3)c(=O)n21)N1CC(F)C1 [Example 421, (5S)-2-[(6-Chloropyridin-3-yl)methyl]-5-[(3-fluoroazetidin-1-yl)carbonyl]-5,6,7,8-tetrahydro[1,2,4]triazolo[4,3-a]pyridin-3(2H)-one] |
| 0.63 | O=C([C@@H]1CCCc2nn(Cc3ccc(Cl)nc3)c(=O)n21)N1CC[C@H](F)C1 [Example 422, (5S)-2-[(6-Chloropyridin-3-yl)methyl]-5-{[(3S)-3-fluoropyrrolidin-1-yl]carbonyl}-5,6,7,8-tetrahydro[1,2,4]triazolo[4,3-a]pyridin-3(2H)-one] |
| 1.85 | O=C([C@@H]1CCCc2nn(Cc3ccc(Cl)nc3)c(=O)n21)N1CCC(F)(F)C1 [Example 423, (5S)-2-[(6-Chloropyridin-3-yl)methyl]-5-[(3,3-difluoropyrrolidin-1-yl)carbonyl]-5,6,7,8-tetrahydro[1,2,4]triazolo[4,3-a]pyridin-3(2H)-one] |
| 0.38 | O=C([C@@H]1CCCc2nn(Cc3ccc(Cl)nc3)c(=O)n21)N1C[C@@H](F)[C@@H](F)C1 [Example 424, (5S)-2-[(6-Chloropyridin-3-yl)methyl]-5-{[(3R,4S)-3,4-difluoropyrrolidin-1-yl]carbonyl}-5,6,7,8-tetrahydro[1,2,4]triazolo[4,3-a]pyridin-3(2H)-one] |
| 1.1 | O=C([C@@H]1CCCc2nn(Cc3ccc(C(F)(F)F)nc3)c(=O)n21)N1CC[C@H](F)C1 [Example 427, (5S)-5-{[(3S)-3-Fluoropyrrolidin-1-yl]carbonyl}-2-{[6-(trifluoromethyl)pyridin-3-yl]methyl}-5,6,7,8-tetrahydro[1,2,4]triazolo[4,3-a]pyridin-3(2H)-one] |
| 1.1 | COc1ccc(Cn2nc3n(c2=O)[C@H](C(=O)N2CC[C@H](F)C2)CCC3)cn1 [Example 430, (5S)-5-{[(3S)-3-Fluoropyrrolidin-1-yl]carbonyl}-2-[(6-methoxypyridin-3-yl)methyl]-5,6,7,8-tetrahydro[1,2,4]triazolo[4,3-a]pyridin-3(2H)-one] |
| 0.995 | COc1ccc(Cn2nc3n(c2=O)[C@H](C(=O)N2C[C@@H](F)[C@@H](F)C2)CCC3)cn1 [Example 431, (5S)-5-{[(3R,4S)-3,4-Difluoropyrrolidin-1-yl]carbonyl}-2-[(6-methoxypyridin-3-yl)methyl]-5,6,7,8-tetrahydro[1,2,4]triazolo[4,3-a]pyridin-3(2H)-one] |
| 0.13 | COc1ccc(Cn2nc3n(c2=O)[C@H](C(=O)N2CCC[C@H]2C#N)CCC3)cn1 [Example 432, (2S)-1-({(5S)-2-[(6-Methoxypyridin-3-yl)methyl]-3-oxo-2,3,5,6,7,8-hexahydro[1,2,4]triazolo[4,3-a]pyridin-5-yl}carbonyl)pyrrolidine-2-carbonitrile] |
